According to US20220143179A1, “DRUG DELIVERY FOR COMBINATION OF EPIGENETIC MODULATION AND IMMUNE CHECKPOINT BLOCKADE” (NORTH CAROLINA STATE UNIVERSITY, priority 2019, published 2022):
pIC50: −log10 of the molar value. Like-named read-outs stand apart in the source and are kept apart here.

Tested on: B16F10 melanoma cells
Assay: MTT assay, cytotoxicity of hypomethylating agents
Type: cell-based
Settings: Mus musculus, read-out: IC50 against B16F10 melanoma cells
Procedure: First, MTT assays were conducted to compare the cytotoxicity among these agents and determine the appropriate concentration to induce the expression of TAAs.
B16F10 cells were cultured into 96-well plates at a density of 5×10^3 cells per well overnight. […] Finally, the rate of cell viability was calculated according to the absorbance at 560 nm by a plate reader (Power Wave XS, Bio-TEK, USA).

| Compound | pIC50 (B16-F10, MTT, 72 h incubation) | pIC50 (B16-F10, 72 h) |
| --- | --- | --- |
| Nc1nc(=O)n([C@H]2C[C@H](O)[C@@H](CO)O2)cc1F [5-F, 5-Fluoro-2′-deoxycytidine] | 5.98 |  |
| O=c1ncccn1[C@@H]1O[C@H](CO)[C@@H](O)[C@H]1O [Zeb, Zebularine] | 4.16 |  |
| Nc1ncn([C@@H]2O[C@H](CO)[C@@H](O)[C@H]2O)c(=O)n1 [AC, 5-Azacytidine] | 4.31 |  |
| Nc1ncn([C@H]2C[C@H](O)[C@@H](CO)O2)c(=O)n1 [DAC, 5-Aza-2′-deoxycytidine] |  | 5.59 |
